The source made the active and inactive calls.
Columns and labels:
[1] = activation of miR-122 Renilla sensor silencing – cell-based, Huh7 psiCHECK-miR122, Renilla luciferase, cherry-picked, dose response (AID 651956); format: functional;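 also: huh7 hepatoma cells stably carrying a psiCHECK-2 miR-122 sensor plasmid; renilla luciferase signal reporting endogenous miR-122 activity after 48 h compound exposure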
[2] = general mammalian cell viability loss – activator set, cherry-pick, cytotoxicity control for miR-122 modulator project, dose response (AID 720690); format: functional, cell-based;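 also: HEK293T human cells scored for general mammalian cytotoxicity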
HEK293 [3] = experiment: cells; format: functional, cell-based; details: Homo sapiens
HEK293 [4] = experiment: inhibition of NOD1-driven NF-kB reporter – cell-based, luminescence, uHTS, primary screen (AID 1578); format: functional; details: Homo sapiens
BJ [5] = experiment: BJ-TERT fibroblast viability loss – cell-based, RAS-independent, luminescence, dose response (AID 1933); format: functional; details: Homo sapiens
[6] = molecular target: Luciferin 4-monooxygenase (Photinus pyralis, UniProt P08659); experiment: inhibition of purified Photinus pyralis luciferase – biochemical, luminescence, dose response (AID 1891)
[7] = inhibition of ADAM10 peptide cleavage – biochemical, FRET peptide substrate, recombinant human ADAM10, selectivity assay for ADAM17 exosite inhibitor project, dose response (AID 743259);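 also: ADAM10 enzyme cleaving a FRET peptide substrate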
[8] = molecular target: Disintegrin and metalloproteinase domain-containing protein 17 (Homo sapiens, UniProt P78536); experiment: exosite inhibitors of ADAM17, dose response, biochemical (AID 743260)
Chain of Disintegrin and metalloproteinase domain-containing protein 17 (P78536 whole entry, the tested form may be a part): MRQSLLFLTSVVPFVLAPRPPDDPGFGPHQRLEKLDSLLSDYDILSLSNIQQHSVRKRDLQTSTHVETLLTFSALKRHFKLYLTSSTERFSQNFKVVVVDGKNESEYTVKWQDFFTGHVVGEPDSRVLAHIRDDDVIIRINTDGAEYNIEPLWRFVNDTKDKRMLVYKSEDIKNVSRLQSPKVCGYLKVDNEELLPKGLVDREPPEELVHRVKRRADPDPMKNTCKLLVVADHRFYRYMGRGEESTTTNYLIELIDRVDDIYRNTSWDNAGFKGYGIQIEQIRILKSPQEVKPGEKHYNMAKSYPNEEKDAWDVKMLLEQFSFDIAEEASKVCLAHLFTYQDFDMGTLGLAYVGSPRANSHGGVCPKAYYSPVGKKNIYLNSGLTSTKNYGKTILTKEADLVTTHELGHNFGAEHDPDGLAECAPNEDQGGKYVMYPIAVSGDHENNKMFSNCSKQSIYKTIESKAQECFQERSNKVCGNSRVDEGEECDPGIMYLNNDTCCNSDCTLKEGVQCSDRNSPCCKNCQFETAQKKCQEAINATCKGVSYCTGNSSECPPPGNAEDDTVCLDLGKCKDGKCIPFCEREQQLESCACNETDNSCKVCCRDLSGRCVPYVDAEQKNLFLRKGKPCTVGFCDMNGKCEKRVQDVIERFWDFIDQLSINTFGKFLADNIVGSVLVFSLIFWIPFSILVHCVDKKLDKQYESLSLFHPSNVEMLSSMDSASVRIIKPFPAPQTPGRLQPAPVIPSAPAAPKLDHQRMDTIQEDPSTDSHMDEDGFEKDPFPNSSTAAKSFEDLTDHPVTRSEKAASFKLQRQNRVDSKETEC

BJ [9] = experiment: cells; format: functional, cell-based; details: Homo sapiens
HEK293 [10] = experiment: cells; format: functional, cell-based; details: Homo sapiens; remark: listed apart in the source
[11] = Luminescence Cell-Based Dose Confirmation HTS to Identify Inhibitors of Platelet Dense Granule Release. [Related pubchem assays: 1663 (Primary HTS), 1678 (Summary of Project)]; format: functional
HEK293 [12] = experiment: cells; format: functional, cell-based; details: Homo sapiens; remark: listed apart in the source
BJ [13] = experiment: BJ-TERT-LT-ST fibroblast viability loss – cell-based, RAS-independent, luminescence, dose response (AID 1935); format: functional; details: Homo sapiens;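 also: BJ fibroblasts immortalized with TERT plus LT and ST oncogenes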
[14] = molecular target: Nucleotide-binding oligomerization domain-containing protein 2 (Homo sapiens, UniProt Q9HC29); experiment: inhibition of NOD2-driven NF-kB reporter – cell-based, luminescence, uHTS, HEK293 (AID 1566); format: functional
Chain of Nucleotide-binding oligomerization domain-containing protein 2 (Q9HC29 whole entry, the tested form may be a part): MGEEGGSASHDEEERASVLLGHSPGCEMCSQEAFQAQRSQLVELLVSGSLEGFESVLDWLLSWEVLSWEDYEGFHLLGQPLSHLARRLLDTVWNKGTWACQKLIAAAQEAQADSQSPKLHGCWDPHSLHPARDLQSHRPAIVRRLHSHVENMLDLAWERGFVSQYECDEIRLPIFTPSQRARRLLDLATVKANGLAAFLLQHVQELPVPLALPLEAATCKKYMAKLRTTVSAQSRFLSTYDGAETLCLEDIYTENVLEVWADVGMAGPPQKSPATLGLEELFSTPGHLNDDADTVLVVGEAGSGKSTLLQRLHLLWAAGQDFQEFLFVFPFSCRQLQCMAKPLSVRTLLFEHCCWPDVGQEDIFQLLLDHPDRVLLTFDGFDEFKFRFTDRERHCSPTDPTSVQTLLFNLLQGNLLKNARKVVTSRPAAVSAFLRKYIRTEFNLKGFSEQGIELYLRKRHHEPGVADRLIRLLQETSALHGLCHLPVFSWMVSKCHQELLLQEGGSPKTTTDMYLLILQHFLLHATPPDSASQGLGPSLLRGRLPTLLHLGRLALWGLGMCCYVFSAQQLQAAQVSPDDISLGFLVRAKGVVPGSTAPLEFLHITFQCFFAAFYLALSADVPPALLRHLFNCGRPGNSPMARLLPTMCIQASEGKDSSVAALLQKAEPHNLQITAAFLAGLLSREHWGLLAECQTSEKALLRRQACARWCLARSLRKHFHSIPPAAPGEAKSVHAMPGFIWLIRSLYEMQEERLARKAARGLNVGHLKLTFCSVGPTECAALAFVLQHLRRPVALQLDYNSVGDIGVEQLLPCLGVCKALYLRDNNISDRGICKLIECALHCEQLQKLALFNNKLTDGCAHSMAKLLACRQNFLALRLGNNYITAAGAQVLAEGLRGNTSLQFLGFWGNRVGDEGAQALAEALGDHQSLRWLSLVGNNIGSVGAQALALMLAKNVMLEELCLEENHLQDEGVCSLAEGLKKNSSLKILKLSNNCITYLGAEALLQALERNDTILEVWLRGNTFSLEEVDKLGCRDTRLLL

[15] = DRD fibroblast viability loss – cell-based, non-viral oncogenic, luminescence, dose response (AID 1934); format: functional; details: Homo sapiens
Fatty acid synthase = Fatty acid synthase (Homo sapiens, UniProt P49327); experiment: inhibition of human FAS-TE enzyme activity – biochemical, endpoint fluorescence intensity, powder samples, SAR follow-up (AID 652164); format: functional
Chain of Fatty acid synthase (P49327 whole entry): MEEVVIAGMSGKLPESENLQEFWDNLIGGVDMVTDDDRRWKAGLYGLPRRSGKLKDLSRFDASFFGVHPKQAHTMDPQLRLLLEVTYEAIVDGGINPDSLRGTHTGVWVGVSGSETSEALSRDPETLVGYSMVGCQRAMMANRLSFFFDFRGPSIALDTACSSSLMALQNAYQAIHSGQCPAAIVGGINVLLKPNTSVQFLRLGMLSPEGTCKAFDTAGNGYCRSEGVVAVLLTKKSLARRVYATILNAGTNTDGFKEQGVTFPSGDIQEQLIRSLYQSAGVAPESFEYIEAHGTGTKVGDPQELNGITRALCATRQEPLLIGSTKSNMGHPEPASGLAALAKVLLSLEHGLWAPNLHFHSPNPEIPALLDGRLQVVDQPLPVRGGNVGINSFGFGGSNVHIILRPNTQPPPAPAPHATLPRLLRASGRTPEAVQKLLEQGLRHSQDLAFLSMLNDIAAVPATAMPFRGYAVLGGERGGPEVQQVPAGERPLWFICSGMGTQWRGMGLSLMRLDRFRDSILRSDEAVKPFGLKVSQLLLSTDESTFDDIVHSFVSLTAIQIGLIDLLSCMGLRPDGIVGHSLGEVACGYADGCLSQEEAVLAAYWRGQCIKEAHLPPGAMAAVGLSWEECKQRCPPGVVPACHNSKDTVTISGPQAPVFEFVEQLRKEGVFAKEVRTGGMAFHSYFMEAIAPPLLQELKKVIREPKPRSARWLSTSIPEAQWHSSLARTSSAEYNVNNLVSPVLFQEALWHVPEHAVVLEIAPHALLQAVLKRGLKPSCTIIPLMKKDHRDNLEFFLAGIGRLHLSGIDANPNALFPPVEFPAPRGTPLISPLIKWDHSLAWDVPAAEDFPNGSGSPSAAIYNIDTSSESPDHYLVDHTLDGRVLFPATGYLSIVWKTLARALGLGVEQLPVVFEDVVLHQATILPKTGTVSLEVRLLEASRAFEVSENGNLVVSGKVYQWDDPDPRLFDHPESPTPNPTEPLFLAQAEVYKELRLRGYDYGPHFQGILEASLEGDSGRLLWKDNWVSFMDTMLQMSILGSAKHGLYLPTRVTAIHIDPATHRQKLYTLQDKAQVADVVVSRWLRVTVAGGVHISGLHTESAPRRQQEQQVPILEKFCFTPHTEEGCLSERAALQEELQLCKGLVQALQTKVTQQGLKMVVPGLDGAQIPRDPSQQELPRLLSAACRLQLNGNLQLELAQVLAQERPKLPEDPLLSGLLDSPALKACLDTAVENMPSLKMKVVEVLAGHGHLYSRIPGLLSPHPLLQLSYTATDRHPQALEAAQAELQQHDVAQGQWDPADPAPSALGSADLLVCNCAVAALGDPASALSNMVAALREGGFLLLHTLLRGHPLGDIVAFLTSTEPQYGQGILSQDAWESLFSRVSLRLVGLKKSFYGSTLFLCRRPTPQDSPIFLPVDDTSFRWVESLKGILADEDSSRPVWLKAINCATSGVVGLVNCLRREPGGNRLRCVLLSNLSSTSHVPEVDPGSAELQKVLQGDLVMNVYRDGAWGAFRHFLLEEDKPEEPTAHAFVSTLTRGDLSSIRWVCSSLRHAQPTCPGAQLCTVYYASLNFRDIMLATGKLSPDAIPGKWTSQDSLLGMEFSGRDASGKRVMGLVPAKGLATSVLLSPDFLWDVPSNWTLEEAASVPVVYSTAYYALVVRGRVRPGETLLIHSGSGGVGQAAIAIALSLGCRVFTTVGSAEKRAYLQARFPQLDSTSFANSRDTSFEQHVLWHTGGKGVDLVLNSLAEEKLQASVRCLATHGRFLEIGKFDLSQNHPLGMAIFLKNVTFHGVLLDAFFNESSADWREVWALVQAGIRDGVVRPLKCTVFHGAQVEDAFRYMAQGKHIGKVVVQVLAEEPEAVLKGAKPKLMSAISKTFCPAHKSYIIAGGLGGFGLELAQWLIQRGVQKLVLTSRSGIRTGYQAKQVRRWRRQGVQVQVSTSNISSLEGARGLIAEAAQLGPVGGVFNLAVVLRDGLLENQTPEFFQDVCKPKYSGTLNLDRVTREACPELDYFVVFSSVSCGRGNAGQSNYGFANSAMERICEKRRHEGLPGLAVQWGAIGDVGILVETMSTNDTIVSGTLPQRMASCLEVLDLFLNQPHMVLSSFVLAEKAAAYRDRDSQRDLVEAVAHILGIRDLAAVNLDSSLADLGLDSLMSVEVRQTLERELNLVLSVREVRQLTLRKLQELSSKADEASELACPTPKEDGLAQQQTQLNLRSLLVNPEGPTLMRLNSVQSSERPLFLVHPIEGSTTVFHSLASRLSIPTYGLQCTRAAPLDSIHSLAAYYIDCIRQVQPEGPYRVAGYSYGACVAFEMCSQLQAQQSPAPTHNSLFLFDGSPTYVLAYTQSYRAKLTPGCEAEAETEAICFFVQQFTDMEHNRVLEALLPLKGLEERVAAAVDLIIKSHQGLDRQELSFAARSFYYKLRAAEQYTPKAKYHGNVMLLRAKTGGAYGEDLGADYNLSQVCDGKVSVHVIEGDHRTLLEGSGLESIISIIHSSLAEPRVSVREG

[16] = blockers of bursicon-stimulated LGR2 cAMP reporter – cell-based, HEK293, CRE-luciferase reporter, cherry pick, set 2, dose response (AID 743343); format: functional;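 also: transfected cells were stimulated with diluted bursicon conditioned medium after compound addition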
Protein skinhead-1 = molecular target: T1, Protein skinhead-1 (Caenorhabditis elegans, UniProt P34707); format: functional
T1 sequence (P34707 whole entry): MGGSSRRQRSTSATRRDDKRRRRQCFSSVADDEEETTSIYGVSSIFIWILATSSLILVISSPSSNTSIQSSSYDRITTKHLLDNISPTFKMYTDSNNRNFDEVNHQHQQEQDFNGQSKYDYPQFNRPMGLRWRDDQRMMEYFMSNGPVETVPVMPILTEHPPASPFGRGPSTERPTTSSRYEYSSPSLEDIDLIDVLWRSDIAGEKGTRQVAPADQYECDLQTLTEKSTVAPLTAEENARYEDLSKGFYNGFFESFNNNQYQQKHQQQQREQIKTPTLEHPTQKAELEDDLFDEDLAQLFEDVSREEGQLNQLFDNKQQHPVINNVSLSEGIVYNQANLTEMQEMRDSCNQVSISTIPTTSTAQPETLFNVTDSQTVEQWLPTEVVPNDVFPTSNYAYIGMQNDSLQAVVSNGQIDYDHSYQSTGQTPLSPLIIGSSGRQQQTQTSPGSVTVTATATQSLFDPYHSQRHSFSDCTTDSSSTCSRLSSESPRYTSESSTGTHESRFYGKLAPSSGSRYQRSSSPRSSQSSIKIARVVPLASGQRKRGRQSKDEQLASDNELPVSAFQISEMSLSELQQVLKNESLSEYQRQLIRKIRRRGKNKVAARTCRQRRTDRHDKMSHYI

[17] = A549 cell cytotoxicity, dose response, cytotoxicity control, plate reader, cherry-pick, antagonist series (AID 743412); format: functional, cell-based
[18] = loss of viability in HepG2 cells – cell-based, CellTiter-Glo, cherry-picked, cytotoxicity control for Shn3 inhibitor project, dose response (AID 624134); format: functional
[19] = reduction of Shn3 3'UTR-driven luciferase in osteoblasts – cell-based, Clone20 osteoblasts, firefly luciferase, cherry-picked, dose response (AID 624132); format: functional;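 also: firefly luciferase luminescence from reporter carrying the Shn3 3'UTR in osteoblasts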
[20] = non-specific 3'UTR reporter inhibition in Clone20-Shn3RL – cell-based, Renilla luciferase, cherry-picked, counter-screen for Shn3 inhibitor project, dose response (AID 624133); format: functional
[21] = blockade of melanocortin 4 receptor signaling – cell-based, plate reader, cherry pick, counter-screen for LGR2 antagonist project, dose response (AID 743444); format: functional;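 also: transfected HEK 293 cells stimulated with alpha-MSH peptide; potency of inhibitors of the alpha-MSH evoked signal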
[22] = toxicity toward HepG2 liver cells – cell-based, plate reader, cherry-pick, antagonist series, cytotoxicity control, dose response (AID 743416); format: functional
[23] = Fluorescence-based cell-based high throughput dose response assay for inhibitors of the interaction of nucleotide-binding oligomerization domain containing 2 (NOD2) and the receptor-interacting serine-threonine kinase 2 (RIPK2).; format: functional; details: Homo sapiens
Beta Lactamase = Beta Lactamase (Pseudomonas aeruginosa, UniProt Q932Y6); experiment: BLA reporter interference, concentration series – BLA reporter cells, FRET fluorescence, artefact control for NOD2-RIPK2 interaction inhibitor project, dose response (AID 651552); format: functional, cell-based
Chain of Beta Lactamase (Q932Y6 whole entry): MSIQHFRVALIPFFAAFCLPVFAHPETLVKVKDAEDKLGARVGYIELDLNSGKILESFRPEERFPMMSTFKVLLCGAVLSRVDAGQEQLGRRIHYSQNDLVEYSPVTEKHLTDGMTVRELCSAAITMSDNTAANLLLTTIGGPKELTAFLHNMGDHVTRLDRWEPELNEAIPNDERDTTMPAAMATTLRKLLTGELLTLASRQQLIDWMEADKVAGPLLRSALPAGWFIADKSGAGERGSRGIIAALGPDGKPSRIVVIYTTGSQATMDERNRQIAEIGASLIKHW

[24] = viability loss in HEK293 cells – cell-based, plate reader, cherry-picked samples, cytotoxicity control, dose response (AID 743446); format: functional
[25] = general cell-killing toxicity readout – plate reader, dry powder samples, cytotoxicity control for PAX8 inhibitor project, dose response (AID 743021); format: functional, cell-based
Paired box protein Pax-8 = Paired box protein Pax-8 (Homo sapiens, UniProt Q06710); experiment: PAX8 transcriptional activity inhibition in RMG-I – RMG-I cells, luciferase, cherry-pick, dose response (AID 687027); format: functional, cell-based;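 also: luciferase reporter driven by Pax8 target thyroperoxidase promoter measured by SteadyGlo luminescence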
Chain of Paired box protein Pax-8 (Q06710 whole entry): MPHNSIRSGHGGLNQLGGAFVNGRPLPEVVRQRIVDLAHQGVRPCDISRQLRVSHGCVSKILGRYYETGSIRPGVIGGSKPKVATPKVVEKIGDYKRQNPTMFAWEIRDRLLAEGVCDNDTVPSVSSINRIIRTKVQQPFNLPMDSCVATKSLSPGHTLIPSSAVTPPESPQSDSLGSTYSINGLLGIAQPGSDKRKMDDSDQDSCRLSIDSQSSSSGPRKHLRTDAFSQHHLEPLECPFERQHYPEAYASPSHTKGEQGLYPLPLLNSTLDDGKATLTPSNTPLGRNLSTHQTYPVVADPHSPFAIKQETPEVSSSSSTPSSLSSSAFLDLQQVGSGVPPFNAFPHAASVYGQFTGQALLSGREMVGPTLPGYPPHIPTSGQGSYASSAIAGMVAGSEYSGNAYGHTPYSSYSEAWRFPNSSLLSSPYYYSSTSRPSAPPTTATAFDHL

[26] = Late stage assay provider results from the probe development effort to identify selective inhibitors of heat shock protein 90 (HSP90): Absorbance-based cell proliferation assay in SKBR3 cells.; format: functional; details: SK-BR-3
[27] = Late stage assay provider results from the probe development effort to identify selective inhibitors of heat shock protein 90 (HSP90): Absorbance-based cell proliferation assay in MCF7 cells.; format: functional
HEK293 [28] = experiment: viability loss in HEK293T cells – cell-based, ATP luminescence, cherry-pick samples, cytotoxicity control, dose response (AID 687005); format: functional; details: Homo sapiens;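 also: cells exposed to compound for 48 hours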
[29] = fungal growth arrest, C. neoformans – Alamar Blue, cherry-picks, dose response (AID 686998); format: functional, organism-based
[30] = HEK293 Cytotoxicity Assay Measured in Cell-Based System Using Plate Reader - 7071-01_Inhibitor_Dose_CherryPick_Activity_Set2.; format: functional
[31] = OVCAR4 cell viability loss – plate reader, dry powder, SA11, cytotoxicity control for PAX8 inhibitor project, dose response (AID 743150); format: functional, cell-based; details: OVCAR-4
[32] = PAX5 cellular inhibition readout – cell-based, plate reader, dry powder samples, selectivity assay for PAX8 inhibitor project, dose response (AID 743047); format: functional;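 also: HEK293 cells carrying a Pax5 driven CD19 promoter luciferase reporter; potency of inhibitors that lower reporter luminescence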
[33] = COV434 cell viability loss – plate reader, dry powder, SA7, cytotoxicity control for PAX8 inhibitor project, dose response (AID 743145); format: functional, cell-based
[34] = PAX8-dependent cell viability loss – plate reader, dry powder, dose response (AID 743049); format: functional, cell-based
[35] = inhibitors acting on PAX2 in cells – cell-based, plate reader, dry powder samples, selectivity assay for PAX8 inhibitor project, dose response (AID 743048); format: functional;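 also: HEK293 cells carrying a WT1 promoter luciferase reporter driven by expressed Pax2; potency is for inhibition of Pax2 driven reporter signal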
[36] = OV-90 cell viability loss – plate reader, dry powder, SA8, PAX8 inhibitor project, dose response (AID 743149); format: functional, cell-based
[37] = IGROV1 cell killing – plate reader, dry powder samples, PAX8 inhibitor project, dose response (AID 743043); format: functional, cell-based; details: IGROV-1
[38] = COV362 cell viability loss – plate reader, dry powder, SA12, cytotoxicity control for PAX8 inhibitor project, dose response (AID 743144); format: functional, cell-based
[39] = EF1alpha-driven Renilla reporter with control 3'UTR suppression – Clone20-Shn3RL cells, dual-Glo, cherry-pick, set 2, counter-screen for Shn3 3'UTR targeting project, dose response (AID 720724); format: functional, cell-based; details: Dual-Go Shn3RL
[40] = Shn3 3'UTR reporter signal decrease – cell-based, Clone20 osteoblasts, firefly luciferase, cherry-pick, set 2, Schnurri-3 inhibitor project, dose response (AID 720490); format: functional;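 also: actives lower the luminescence signal as inhibitors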
INS1 = experiment: INS-1E survival protection against cytokine death – cell-based, luminescence, retest, dose response (AID 449756); format: functional; details: Rattus norvegicus;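 also: cell death triggered by IL-1 beta plus TNF-alpha plus IFN-gamma mixture; protective hits raise ATP signal compared with cytokine alone wells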
[41] = viability loss in HepG2 hepatoma cells – cell-based, ATP luminescence, cherry-pick, activator set 2, cytotoxicity control, dose response (AID 1053143); format: functional
[42] = Luminescence Cell-Based Dose Response HTS to Identify Activators of Luciferase Translation or Activity in H4 […] Cells. [Related pubchem assays: 1829 (Project Summary), 1814 (Primary HTS)]; format: functional
[43] = Luminescence Cell-Based Dose Confirmation HTS to Identify Activators of 5'UTR Stem-Loop Driven Alpha-Synuclein mRNA Translation in H4 Neuroglioblastoma Cells. [Related pubchem assays: 1829 (Project Summary), 1814 (Primary HTS)]; format: functional
H4 = experiment: Luminescence Cell-Based Dose Response HTS to Identify Activators of 5'UTR Stem-Loop Driven Prion Protein mRNA Translation in H4 Neuroglioblastoma Cells. [Related pubchem assays: 1829 (Project Summary), 1814 (Primary HTS)]; format: functional; details: Homo sapiens
cells [44] = details: HEK293
[45] = viability loss in HepG2 liver cells – cell-based, ATP luminescence, cherry-pick, set 6, cytotoxicity control, dose response (AID 1053125); format: functional
cells [46] = experiment: cells
cells [47] = details: A549

CO[C@@H]1CN(C)C(=O)c2ccc(NC(=O)c3ccc(Oc4ccccc4)cc3)cc2OC[C@H](C)NC[C@@H]1C
AC50 [1]: 11.3 µM (active) | AC50 [2]: 23.6 µM (active)

Cc1ccccc1S(=O)(=O)Cc1ccc(C(=O)N2CCN(c3cccc(C)c3C)CC2)o1
IC50 (HEK293 [3]): 3.96 µM (active) | EC50 (HEK293 [4]): 5.29 µM (active) | EC50 (BJ [5]): 11.1 µM (active) | EC50 [6]: 28.5 µM (active) | IC50 [7]: 11.7 µM (inactive) | IC50 [8]: > 69.6 µM (inactive) | EC50 (BJ [9]): 10 µM (inconclusive) | IC50 (HEK293 [10]): 10.5 µM (active) | EC50 [11]: > 112 µM (not active) | IC50 (HEK293 [12]): > 20 µM (inactive) | EC50 (BJ [13]): 4.92 µM (active) | EC50 [14]: 10.8 µM (active) | EC50 [15]: 4.95 µM (active)

CCC(=O)Nc1nc(-c2ccc(S(=O)(=O)N3CCC(C)CC3)cc2)cs1
IC50 (Fatty acid synthase): > 80 µM (inactive)

O=C1NC2C(=CC(O)C(O)C2O)c2cc3c(c(O)c21)OCO3 (stereo unspecified)
AC50 [16]: 0.138 µM (active) | IC50 (Protein skinhead-1): 24 µM (active) | AC50 [17]: 0.17 µM (active) | AC50 [18]: 59 µM (active) | AC50 [19]: < 0.26 µM (active) | AC50 [20]: 0.431 µM (active) | AC50 [21]: 0.161 µM (active) | AC50 [22]: 0.218 µM (active) | IC50 [23]: 49.7 µM (inactive) | IC50 (Beta Lactamase): 49.7 µM (inactive) | AC50 [24]: 0.167 µM (active)

COC(=O)C1C=CC(OC2OC(COC(C)=O)C(OC(C)=O)C(OC(C)=O)C2OC(C)=O)n2c(=O)n(-c3ccccc3)c(=O)n21 (stereo unspecified)
AC50 [25]: 40 µM (active) | AC50 (Paired box protein Pax-8): 3.41 µM (active)

O=C(Nc1ccccc1I)c1coc(=O)c(Br)c1
IC50 [26]: 45.3 µM (inactive) | IC50 [27]: 29.4 µM (inactive)

COC(=O)C1=C(C)N(C)C(S)=NC1c1ccccc1 (stereo unspecified)
AC50 (HEK293 [28]): > 92 µM (inactive) | AC50 [29]: 120 µM (active) | AC50 [30]: > 92 µM (inactive)

C[C@@H]1CN([C@H](C)CO)C(=O)c2cc(NC(=O)CCCCCC(=O)Nc3ccccc3N)ccc2O[C@@H]1CN(C)Cc1ccc(C(F)(F)F)cc1
AC50 [31]: 31.2 µM (active) | AC50 [32]: 30 µM (active) | AC50 [33]: > 70 µM (inactive) | AC50 [34]: 10.1 µM (active) | AC50 [35]: > 32 µM (inactive) | AC50 [36]: > 70 µM (inactive) | AC50 [37]: 39 µM (active) | AC50 (Paired box protein Pax-8): 6.43 µM (active) | AC50 [38]: 32.9 µM (active)

CN(CC(=O)Nc1ccccc1Cl)C(=O)c1cccc(S(=O)(=O)N2CCN(c3ccccc3)CC2)c1
AC50 [18]: > 70 µM (inactive) | AC50 [19]: 3.84 µM (active) | AC50 [39]: 47.9 µM (active) | AC50 [40]: 4.32 µM (active)

COc1ccc(C2CC(c3ccc4ccccc4c3OC(C)=O)=NN2C(C)=O)cc1 (stereo unspecified)
AC50 (INS1): 3.3 µM (active) | AC50 [41]: 26 µM (active) | EC50 [42]: 3.82 µM (active) | EC50 [43]: 0.512 µM (active) | EC50 (H4): 0.456 µM (active)

Nc1c(C(=O)NCc2ccccc2)c2nc3ccccc3nc2n1CCCN1CCOCC1
AC50 (cells [44]): 25.2 µM (active) | AC50 [45]: 17.1 µM (active) | AC50 (cells [46]): 32.1 µM (active) | AC50 (cells [47]): 15.6 µM (active)
